Measured values taken from patent publication EP0402033A1, “Carboxamide derivatives” (OTSUKA PHARMACEUTICAL FACTORY, INC., priority 1989, dated 1990).

Columns and labels:
erythrocytes = test: Pharmacological Test - 2 (Hemolysis test) in mice after oral administration; assay type: in vivo, ddY-strain male mice; settings: ddY male mice, 600 mg/5 ml/kg/day for 10 days, 20 hours fasting, mean of test group divided by mean of control group
Description: Seven-week-old ddY-strain male mice were used as test animals. One test group consisting of six (6) mice. A test compound was suspended in a 0.5%-carboxymethyl cellulose (CMC) aqueous solution, thus prepared suspension containing the test compound was orally administered compulsorily by using a sonde to the mouse in the amount of 600 mg/5 ml/kg/day for 10 days. Similar to the above, to each of six mice in the control group was administered with 0.5%-CMC aqueous soluiton without containing the test compound.
After the final administration was finished, the mouse was fasted for 20 hours, then the mouse was subjected to dissection and the blood sample as well as the sample of the spleen were taken by enucleation. The number of the erythrocytes was counted and the weight of the spleen was measured.
The ratio of number of the erythrocytes was calculated by dividing the mean value of number of the erythrocytes obtained from the test group by the mean value of number of the erythrocytes obtained from the control group. Similarly, the ratio of weight of the spleen was calculated by dividing the mean value of weight of the spleen obtained from the test group by the mean value of weight of the spleen obtained from the control group.

[1] = system: plasma high density lipoprotein cholesterol (HDLC); test: Pharmacological Test - 1: increase of plasma HDLC concentration in rats after oral administration; assay type: in vivo, Wistar strain male rats; settings: Wistar male rats, 300 mg/5 ml/kg/day for 2 days in 0.5%-CMC, blood taken after 20 hours fasting, relative to control group
Description: Seven-week-old Wistar strain male rats were used as the test animals. One test group consisting of six (6) rats. A test compound was suspended in a 0.5%-carboxymethyl cellulose (CMC) aqueous solution, thus prepared suspension containing the test compound was orally administered compulsorily by using a sonde to the rat in the amount of 300 mg/5 ml/kg/day for 2 days. Similar to the test group, to each of six (6) rats in the control group was administered with 0.5%-CMC aqueous solution without containing the test compound.
After the final administration was finished, the test rat was fasted for 20 hours, and the blood sample was taken from the rat. The concentration of plasma high density lipoprotein cholesterol (HDLC) was determined by using a measuring instrument of HDL-C kit-N (manufactured by Nihon Shoji Kabushiki Kaisha).
Increasing ratio (%) of plasma HDLC concentration performed by a test compound was calculated from the formula as follows: [formula]

| SMILES | Ratio of number of the erythrocytes (erythrocytes) | Ratio of weight of the spleen (erythrocytes) | Increasing ratio (%) of the plasma HDLC concentration [1] |
| --- | --- | --- | --- |
| CCOP(=O)(Cc1ccc(C(=O)Nc2ccc(Br)cc2C#N)cc1)OCC [Compound of Example 1, 4-diethoxyphosphinoylmethyl-N-(4-bromo-2-cyanophenyl)benzamide] | 0.96 | 1.13 | 193% |
| CCOP(=O)(Cc1ccc(C(=O)Nc2ccc(Cl)cc2C#N)cc1)OCC [Compound of Example 2] | 0.97 | 1.09 | 196% |
| CCOP(=O)(Cc1ccc(C(=O)Nc2ccc(C#N)cc2Cl)cc1)OCC [Compound of Example 3] |  |  | 187% |
| CCOP(=O)(Cc1ccc(C(=O)Nc2ccc(I)cc2C#N)cc1)OCC [Compound of Example 4] |  |  | 187% |
| CCOP(=O)(Cc1ccc(C(=O)Nc2ccc(C#N)cc2Br)cc1)OCC [Compound of Example 5] | 1.07 | 0.94 | 222% |
| CCOP(=O)(Cc1ccc(C(=O)Nc2ccc(C#N)cc2I)cc1)OCC [Compound of Example 7] |  |  | 184% |
